Experimental data as given in US20170020798A1, “HESPERIDIN-CONTAINING COMPOSITIONS AND METHODS FOR TREATMENT OF SKIN DISORDERS” (The Regents of the University of California, priority 2015, published 2017).
Where a name gives a salt, the structure may show the parent alone.

Assays:
[1] = cited from earlier work
young normal murine skin = assay: Topical hesperidin on young normal murine skin; format: in vivo
[2] = test system: keratinocytes isolated from adult human (donor aged 60-65 year old); assay: Q-PCR for mRNA expression in adult human keratinocyte cultures; format: cell-based; details: 0.02% hesperidin
Method: Second-passage keratinocytes isolated from adult human (donor aged 60-65 year old) were cultured in serum-free keratinocyte growth medium containing 0.07 mM calcium (Clonetics, San Diego, Calif.). Cells at 60%-70% confluence were switched to a medium containing 1.2 mM calcium and treated with either 0.02% hesperidin or vehicle alone (0.02% ethanol). After 24 and 48 hrs of treatment, keratinocytes were collected for Q-PCR analysis.
Total RNA was isolated from cultured human keratinocytes using TRI Reagent (Sigma). First strand cDNA was synthesized from 1 ug of total RNA with the iScript cDNA Synthesis Kit (Bio-Rad, Hercules, Calif.). The real-time PCR contained 20 ng of reversed transcribed total RNA, 450 nM forward and reverse primers, and 10 μl of 2× LightCycler 480 SYBR Green I Master in a final volume of 20 μl in 96-well plates using Mx3000PTM Real-time PCR System (Stratagene, La Jolla, Calif.). Quantification was performed by the comparative CT method with 36B4 or Cyclophilin A used for normalization. The primers for lipid synthetic enzymes such as 3-hydroxy-3-methyl-glutaryl-CoA reductase (HMGCoA), serine-palmitoyl transferase 1 (SPT1), fatty acid synthase (FAS), lipid transporters (ATP-binding cassette A12 (ABCA12)), mouse beta defensin 3 (mBD3), sodium-hydrogen exchanger 1 (NHE1), secretary phospholipase A2g2f (sPLA2g2f), filaggrin, involucrin, loricrin and Cyclophilin A are listed in Primer Table 2. Relative expression of the mRNAs compared to control mRNA was calculated. Data are expressed as percentage of control (as 100%).

aged mouse epidermis = assay: Q-PCR for mRNA expression in aged mouse epidermis; format: in vivo
murine skin = assay: Epidermal mRNA levels of antioxidant enzymes after topical hesperidin; format: in vivo; details: topical hesperidin applications
aged murine skin = assay: Epidermal function after topical hesperidin in aged mice (TEWL, barrier recovery, SC hydration, skin surface pH); format: in vivo, mouse
Method: (§1) All animal procedures were approved by the Animal Studies Subcommittee (IACUC) of the San Francisco Veterans Administration Medical Center and performed in accordance with their guidelines. Since hesperidin is not soluble in 100% ethanol, 70% ethanol was used as vehicle. Since the turnover time for […] is about 9.5 days in normal young mice, we chose to treat aged mice for 9 days. Both flanks of 12-15 month old mice were treated topically with 60 μl of 2% hesperidin or 70% ethanol twice daily for 9 days. Basal epidermal permeability barrier function was assessed by measuring transepidermal water loss (TEWL) using TM300 connected to MPA5 (C&K, Cologne, Germany). For barrier recovery, TEWL was measured using an electrolytic water analyzer (Meeco, Warrington, Pa.) at 0, 2 and 4 hours after tape stripping (10-fold increase in TEWL), and percent barrier recovery was calculated.

[3] = test system: GC-induced epidermal side effects; assay: Hesperidin co-applications with glucocorticoid (GC): prevention of GC-induced epidermal side effects; format: in vivo
aged epidermis [4] = assay: Lamellar body density and secretion (electron microscopy); format: in vivo, mouse
Description: Skin biopsies from both vehicle and hesperidin-treated mice were taken for electron microscopy. Briefly, samples were minced to <0.5 mm^3, fixed in modified Karnovsky's fixative overnight, and post-fixed in either 0.2% ruthenium tetroxide or 1% aqueous osmium tetroxide, containing 1.5% potassium ferrocyanide. After fixation, all samples were dehydrated in a graded ethanol series, and embedded in an Epon-epoxy mixture. Ultrathin sections were examined, with or without further contrasting with lead citrate, in a Zeiss 10A electron microscope (Carl Zeiss, Thornwood, N.J.), operated at 60 kV.
LB numbers were determined in granular cells two to three layers below the stratum granulosum-stratum corneum (SG-SC) junction as previously described. The number of LBs was counted at 4800 magnification using a calibrated grid. Total 10 random pictures from each biopsy sample were assessed. For quantification of LB secretion, number of LB protrusion at the SG-SC junction were measured at a magnification of 5800 and correlated with the length of the bottom surface of the first SC layer on 10 random images at 5800 magnification.

aged mice = assay: Cholesterol-dominant lipid mixture plus hesperidin on aged mice; format: in vivo, mouse; details: 2% hesperidin added to the triple lipid mixture, 18-month old mice, twice daily for 7 days
Method: The composition includes a cholesterol-dominant lipid mixture plus hesperidin for the use on aged mice: 18-Month old mice were divided into groups of untreated, lipid mixture+vehicle (70% ethanol) treated, and lipid mixture+2% hesperidin treated. Mice are treated twice daily for 7 days. All measurements are carried out with a MPA5 physiology monitor. Lipid mixture contained cholesterol, fatty acid and ceramide (3:1:1 molar ratio, with cholesterol at 3 moles) at a concentration of 0.74 wt %. Data are normalized to untreated control, setting untreated as 100%.

[5] = Solubility of hesperidin in ethanol; format: physicochemical; details: 100% ethanol
aged epidermis [6] = assay: Gross appearance, histology and PCNA staining of aged mouse epidermis; format: in vivo; details: aged mice, 2% hesperidin topically twice daily for 9 days; NS vs. vehicle
Method: as §1
Immunohistochemical staining for assessing changes in epidermal differentiation was performed as follows. Briefly, 5 μm paraffin sections were incubated with the primary antibodies (Covance, Emeryville, Calif.) overnight at 4° C. […] Staining was detected with ABC-peroxidase kit from Vector Lab (Burlingame, Calif.). Sections were examined with a Zeiss fluorescence microscope (Jena, Germany) and digital images were captured with AxioVision software (Carl Zeiss Vision, Munich, Germany).

normal epidermis = details: applied to normal epidermis; cited from earlier work
[7] = aged human keratinocyte cultures
[8] = aged epidermis, topical hesperidin, Q-PCR
[9] = aged mouse epidermis, topical hesperidin
[10] = aged mouse epidermis, topical hesperidin, Q-PCR
[11] = hesperidin co-applications with GC

CC(C)CCC[C@@H](C)[C@H]1CC[C@H]2[C@@H]3CC=C4C[C@@H](OS(=O)(=O)O)CC[C@]4(C)[C@H]3CC[C@]12C [CSO4, Cholesterol sulfate]
pKa [1]: 3.1

COc1ccc([C@@H]2CC(=O)c3c(O)cc(O[C@@H]4O[C@H](CO[C@@H]5O[C@@H](C)[C@H](O)[C@@H](O)[C@H]5O)[C@@H](O)[C@H](O)[C@H]4O)cc3O2)cc1O [hesperidin, (2S)-5-hydroxy-2-(3-hydroxy-4-methoxyphenyl)-7-[(2S,3R,4S,5S,6R)-3,4,5-trihydroxy-6-[[(2R,3R,4R,5R,6S)-3,4,5-trihydroxy-6-methyloxan-2-yl]oxymethyl]oxan-2-yl]oxy-2,3-dihydrochromen-4-one]
epidermal differentiation (young normal murine skin): stimulation | epidermal proliferation (young normal murine skin): stimulation | lamellar body (lipid) secretion (young normal murine skin): enhanced | skin barrier recovery after acute barrier abrogation (young normal murine skin): significantly accelerated | ABCA12 mRNA expression ([2]; adult keratinocyte cultures): marked increase | filaggrin mRNA levels ([2]; adult keratinocyte cultures): increased | involucrin mRNA levels ([2]; adult keratinocyte cultures): increased | loricrin mRNA levels ([2]; adult keratinocyte cultures): increased | CAMP/LL37 expression [2, 7]: markedly upregulated | constitutive hBD2 mRNA expression [2, 7]: no changes | hBD3 mRNA [2, 7]: markedly upregulated | Nrf2 expression (aged mouse epidermis; aged epidermis): upregulates | NHE1 mRNA levels (aged mouse epidermis; [8]): marked elevation | sPLA2g2f mRNA levels (aged mouse epidermis; [8]): marked elevation | epidermal mBD3 mRNA levels (aged mouse epidermis; aged mice, hesperidin treatment): significantly increased | ABCA12 mRNA expression (aged mouse epidermis; [9]): marked increase | filaggrin mRNA levels (aged mouse epidermis; [9]): significantly increased | loricrin mRNA levels (aged mouse epidermis; [9]): significantly increased | FAS mRNA levels (aged mouse epidermis; [10]): significantly increased | HMGCoA mRNA levels (aged mouse epidermis; [10]): significantly increased | SPT1 mRNA levels (aged mouse epidermis; [10]): significantly increased | epidermal glutathione reductase mRNA levels (murine skin): increased | epidermal superoxide dismutase mRNA levels (murine skin): increased | skin surface pH (aged murine skin; aged mice, 9 days topical hesperidin, compared with vehicle-treated skin): significantly declined | basal transepidermal water loss rates (aged murine skin; aged mice, 9 days topical hesperidin, compared with vehicle-treated skin, within normal range of young skin): increased slightly | baseline SC hydration (aged murine skin; aged mice, after 9 days of topical hesperidin, no different from vehicle): 58.80±2.27 | barrier recovery (aged murine skin; at both 2 and 4 hours after acute barrier disruption of aged skin): significantly accelerated | GC-induced inhibition of epidermal proliferation ([3]; co-applications of hesperidin with GC): prevented | GC-induced impairment of epidermal permeability barrier homeostasis [3, 11]: prevented | GC-induced impairment of stratum corneum (SC) integrity [3, 11]: prevented | epidermal β-glucocerebrosidase activity [3, 11]: enhanced | filaggrin expression [3, 11]: significant increase | lamellar bilayer maturation [3, 11]: accelerated | GC-induced impairment of SC acidification / changes in skin surface pH ([3]; hesperidin co-applications with topical GC): prevented | density of lamellar bodies (aged epidermis [4]; aged epidermis after hesperidin treatment): did not increase | extent of lamellar body secretion (aged epidermis [4]; aged epidermis, topical hesperidin treatment, quantitative analyses): enhanced | pH (aged mice): significantly improved (lowered) | solubility [5]: not soluble | PCNA-positive cells per cm epidermal length (aged epidermis [6]): 2.45±0.13 cells per cm epidermal length

CC[C@H](C)C(=O)O[C@H]1C[C@@H](C)C=C2C=C[C@H](C)[C@H](CC[C@@H]3C[C@@H](O)CC(=O)O3)[C@H]21 [lovastatin]
effect on barrier function (normal epidermis): produces a barrier defect
